In patent US10189841B2, “Purinones as ubiquitin-specific protease 1 inhibitors” (Forma Therapeutics, Inc., priority 2015, dated 2019):

molecular target: USP1 (construct USP1 (I-785, GG670, 671AA)/UAF1 (I-677)-Flag) (Homo sapiens (Human), UniProt O94782, G670A/G671A); test: Ubiquitin-Rhodamine 110 assay for USP1 activity; type: biochemical; conditions: USP1/UAF1 25 pM, Ub-Rh110 25 nM, 30 min preincubation
Outline: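 Two formats with the USP1/UAF1 complex and 25 nM ubiquitin-rhodamine 110 in pH 8.0 Tris buffer with calcium, glutathione and detergent. Single-point screening used 10 µM, 100 pM enzyme and 45 min. Inhibition was set against no-enzyme and DMSO wells.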

USP1 (construct USP1 (I-785, GG670, 671AA)/UAF1 (I-677)-Flag), sequence (O94782 whole entry G670A/G671A): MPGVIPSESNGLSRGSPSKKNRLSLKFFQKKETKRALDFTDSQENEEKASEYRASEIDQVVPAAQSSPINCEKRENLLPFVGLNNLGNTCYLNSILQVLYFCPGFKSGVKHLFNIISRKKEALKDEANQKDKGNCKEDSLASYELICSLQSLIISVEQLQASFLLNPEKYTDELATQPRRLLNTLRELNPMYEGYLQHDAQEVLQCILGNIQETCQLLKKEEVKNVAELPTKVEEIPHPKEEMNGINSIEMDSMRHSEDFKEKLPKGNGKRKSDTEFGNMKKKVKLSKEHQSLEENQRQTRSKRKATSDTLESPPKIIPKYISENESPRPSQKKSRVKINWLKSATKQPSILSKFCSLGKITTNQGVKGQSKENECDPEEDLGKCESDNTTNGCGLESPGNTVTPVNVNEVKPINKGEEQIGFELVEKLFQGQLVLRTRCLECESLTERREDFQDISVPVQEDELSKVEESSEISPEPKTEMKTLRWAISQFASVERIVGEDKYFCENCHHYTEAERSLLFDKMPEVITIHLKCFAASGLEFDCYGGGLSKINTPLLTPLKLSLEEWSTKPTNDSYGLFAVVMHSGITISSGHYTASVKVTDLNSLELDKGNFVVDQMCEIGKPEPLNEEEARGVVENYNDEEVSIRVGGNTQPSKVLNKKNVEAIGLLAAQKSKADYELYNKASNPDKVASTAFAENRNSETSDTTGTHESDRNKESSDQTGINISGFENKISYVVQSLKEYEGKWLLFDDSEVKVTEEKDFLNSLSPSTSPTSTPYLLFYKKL
USP1 (construct USP1 (I-785, GG670, 671AA)/UAF1 (I-677)-Flag), sequence (Q8TAF3 whole entry partner): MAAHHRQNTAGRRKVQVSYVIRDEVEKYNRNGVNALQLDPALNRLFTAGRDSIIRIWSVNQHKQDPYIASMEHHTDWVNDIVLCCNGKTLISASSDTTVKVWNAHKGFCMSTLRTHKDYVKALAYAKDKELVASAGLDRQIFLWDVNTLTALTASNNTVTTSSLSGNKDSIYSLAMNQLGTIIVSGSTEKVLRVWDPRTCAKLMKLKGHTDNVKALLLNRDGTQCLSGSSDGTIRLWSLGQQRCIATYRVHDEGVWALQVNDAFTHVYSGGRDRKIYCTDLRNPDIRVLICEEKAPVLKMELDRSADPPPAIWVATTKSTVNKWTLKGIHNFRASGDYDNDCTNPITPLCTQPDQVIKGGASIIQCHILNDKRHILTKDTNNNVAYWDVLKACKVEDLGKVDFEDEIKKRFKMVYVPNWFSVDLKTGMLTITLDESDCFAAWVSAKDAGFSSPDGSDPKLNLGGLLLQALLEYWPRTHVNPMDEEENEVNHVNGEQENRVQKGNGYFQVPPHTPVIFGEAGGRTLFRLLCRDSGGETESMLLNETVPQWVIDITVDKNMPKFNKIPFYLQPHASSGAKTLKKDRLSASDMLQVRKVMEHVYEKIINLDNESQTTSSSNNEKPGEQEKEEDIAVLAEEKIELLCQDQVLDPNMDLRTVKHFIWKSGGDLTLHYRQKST

First: CC(C)c1ccccc1-c1ncc2[nH]c(=O)n(Cc3ccc(C(=O)N4CCC(F)(F)C4)cc3)c2n1 [Compound I-392, 9-(4-(3,3-difluoropyrrolidine-1-carbonyl)benzyl)-2-(2-isopropylphenyl)-7,9-dihydro-8H-purin-8-one]
Second: CC(C)c1ccccc1-c1ncc2[nH]c(=O)n(Cc3ccc(C(=O)N4CC5(CCCO5)C4)cc3)c2n1 [Compound I-393, 9-(4-(5-oxa-2-azaspiro[3.4]octane-2-carbonyl)benzyl)-2-(2-isopropylphenyl)-7,9-dihydro-8H-purin-8-one]
The IC50 of the first is lower: < 50 nM for the first, 200 to 2000 nM for the second.

First: CC(C)c1ccccc1-c1ncc2[nH]c(=O)n(Cc3ccc(C(=O)N4CC5(CCOC5)C4)cc3)c2n1 [Compound I-394, 9-(4-(6-oxa-2-azaspiro[3.4]octane-2-carbonyl)benzyl)-2-(2-isopropylphenyl)-7,9-dihydro-8H-purin-8-one]
Second: CC(C)c1ccccc1-c1ncc2[nH]c(=O)n(Cc3ccc(C(=O)N4CCCC45COC5)cc3)c2n1 [Compound I-411, 9-(4-(2-oxa-5-azaspiro[3.4]octane-5-carbonyl)benzyl)-2-(2-isopropylphenyl)-7,9-dihydro-8H-purin-8-one]
The IC50 of the first is higher: 200 to 2000 nM for the first, < 50 nM for the second. The second is the more potent here.

`CC(C)c1ccccc1-c1ncc2[nH]c(=O)n(Cc3ccc(C(=O)N4CCC[C@@H]4C)cc3)c2n1` [Compound I-395, (S)-2-(2-isopropylphenyl)-9-(4-(2-methylpyrrolidine-1-carbonyl)benzyl)-7,9-dihydro-8H-purin-8-one] and `CC(C)c1ccccc1-c1ncc2[nH]c(=O)n(Cc3ccc(C(=O)N4CCCCC4C)cc3)c2n1` (centres unmarked) [Compound I-398, 2-(2-isopropylphenyl)-9-(4-(2-methylpiperidine-1-carbonyl)benzyl)-7,9-dihydro-8H-purin-8-one] cannot be ordered by IC50: < 50 nM for the first, < 50 nM for the second.

`COC[C@@H]1CCCN1C(=O)c1ccc(Cn2c(=O)[nH]c3cnc(-c4ccccc4C(C)C)nc32)cc1` [Compound I-396, (S)-2-(2-isopropylphenyl)-9-(4-(2-(methoxymethyl)pyrrolidine-1-carbonyl)benzyl)-7,9-dihydro-8H-purin-8-one] and `COC[C@H]1CCCN1C(=O)c1ccc(Cn2c(=O)[nH]c3cnc(-c4ccccc4C(C)C)nc32)cc1` [Compound I-403, (R)-2-(2-isopropylphenyl)-9-(4-(2-(methoxymethyl)pyrrolidine-1-carbonyl)benzyl)-7,9-dihydro-8H-purin-8-one] fall in the same range of IC50: 200 to 2000 nM for the first, 200 to 2000 nM for the second.

Compared with `CCC1CCCCN1C(=O)c1ccc(Cn2c(=O)[nH]c3cnc(-c4ccccc4C(C)C)nc32)cc1` (centres unmarked) [Compound I-397, 9-(4-(2-ethylpiperidine-1-carbonyl)benzyl)-2-(2-isopropylphenyl)-7,9-dihydro-8H-purin-8-one], `COCC1CCCCN1C(=O)c1ccc(Cn2c(=O)[nH]c3cnc(-c4ccccc4C(C)C)nc32)cc1` (centres unmarked) [Compound I-400, 2-(2-isopropylphenyl)-9-(4-(2-(methoxymethyl)piperidine-1-carbonyl)benzyl)-7,9-dihydro-8H-purin-8-one] is higher in IC50: < 50 nM for the first, 50 to 200 nM for the second.

Compared with `CC1CCCN(C(=O)c2ccc(Cn3c(=O)[nH]c4cnc(-c5ccccc5C(C)C)nc43)cc2)C1` (centres unmarked) [Compound I-399, 2-(2-isopropylphenyl)-9-(4-(3-methylpiperidine-1-carbonyl)benzyl)-7,9-dihydro-8H-purin-8-one], `COC1CCCN(C(=O)c2ccc(Cn3c(=O)[nH]c4cnc(-c5ccccc5C(C)C)nc43)cc2)C1` (centres unmarked) [Compound I-401, 2-(2-isopropylphenyl)-9-(4-(3-methoxypiperidine-1-carbonyl)benzyl)-7,9-dihydro-8H-purin-8-one] is higher in IC50: < 50 nM for the first, 50 to 200 nM for the second. The first is the more potent here.

`CC(C)c1ccccc1-c1ncc2[nH]c(=O)n(Cc3ccc(C(=O)N(C)C4CCOC4)cc3)c2n1` (centres unmarked) [Compound I-402, 4-((2-(2-isopropylphenyl)-8-oxo-7,8-dihydro-9H-purin-9-yl)methyl)-N-methyl-N-(tetrahydrofuran-3-yl)benzamide] and `CC(C)c1ccccc1-c1ncc2[nH]c(=O)n(Cc3ccc(C(=O)N4CCOC[C@H]4C)cc3)c2n1` [Compound I-404, (R)-2-(2-isopropylphenyl)-9-(4-(3-methylmorpholine-4-carbonyl)benzyl)-7,9-dihydro-8H-purin-8-one] fall in the same range of IC50: 200 to 2000 nM for the first, 200 to 2000 nM for the second.

First: CC(C)c1ccccc1-c1ncc2[nH]c(=O)n(Cc3ccc(C(=O)N4CCOC[C@@H]4C)cc3)c2n1 [Compound I-405, (S)-2-(2-isopropylphenyl)-9-(4-(3-methylmorpholine-4-carbonyl)benzyl)-7,9-dihydro-8H-purin-8-one]
Second: CC(C)c1ccccc1-c1ncc2[nH]c(=O)n(Cc3ccc(C(=O)N4CCN(C)CC4)cc3)c2n1 [Compound I-410, 2-(2-isopropylphenyl)-9-(4-(4-methylpiperazine-1-carbonyl)benzyl)-7,9-dihydro-8H-purin-8-one]
The IC50 of the first is lower: 200 to 2000 nM for the first, > 2000 nM for the second. The first is the more potent here.

`CC(C)c1ccccc1-c1ncc2[nH]c(=O)n(Cc3ccc(C(=O)N(C)CC(F)(F)F)cc3)c2n1` [Compound I-406, 4-((2-(2-isopropylphenyl)-8-oxo-7,8-dihydro-9H-purin-9-yl)methyl)-N-methyl-N-(2,2,2-trifluoroethyl)benzamide] and `COCCN(C)C(=O)c1ccc(Cn2c(=O)[nH]c3cnc(-c4ccccc4C(C)C)nc32)cc1` [Compound I-407, 4-((2-(2-isopropylphenyl)-8-oxo-7,8-dihydro-9H-purin-9-yl)methyl)-N-(2-methoxyethyl)-N-methylbenzamide] fall in the same range of IC50: 50 to 200 nM for the first, 50 to 200 nM for the second.

`CC(C)c1ccccc1-c1ncc2[nH]c(=O)n(Cc3ccc(C(=O)NCCN(C)C)cc3)c2n1` [Compound I-408, N-(2-(dimethylamino)ethyl)-4-((2-(2-isopropylphenyl)-8-oxo-7,8-dihydro-9H-purin-9-yl)methyl)benzamide] and `CC(C)c1ccccc1-c1ncc2[nH]c(=O)n(Cc3ccc(C(=O)NCCN4CCCCC4)cc3)c2n1` [Compound I-409, 4-((2-(2-isopropylphenyl)-8-oxo-7,8-dihydro-9H-purin-9-yl)methyl)-N-(2-(piperidin-1-yl)ethyl)benzamide] cannot be ordered by IC50: > 2000 nM for the first, > 2000 nM for the second.

`COc1ncccc1-c1ncc2[nH]c(=O)n(Cc3ccc(-c4nc(C(F)(F)F)cn4C)cc3)c2n1` [Compound I-412, 2-(2-methoxypyridin-3-yl)-9-(4-(1-methyl-4-(trifluoromethyl)-1H-imidazol-2-yl)benzyl)-7,9-dihydro-8H-purin-8-one] and `CCOc1ncccc1-c1ncc2[nH]c(=O)n(Cc3ccc(-c4nc(C(F)(F)F)cn4C)cc3)c2n1` [Compound I-421, 2-(2-ethoxypyridin-3-yl)-9-(4-(1-methyl-4-(trifluoromethyl)-1H-imidazol-2-yl)benzyl)-7,9-dihydro-8H-purin-8-one] cannot be ordered by IC50: < 50 nM for the first, < 50 nM for the second.

First: CCCOc1ncccc1-c1ncc2[nH]c(=O)n(Cc3ccc(-c4nc(C(F)(F)F)cn4C)cc3)c2n1 [Compound I-413, 9-(4-(1-methyl-4-(trifluoromethyl)-1H-imidazol-2-yl)benzyl)-2-(2-propoxypyridin-3-yl)-7,9-dihydro-8H-purin-8-one]
Second: COCCOc1ncccc1-c1ncc2[nH]c(=O)n(Cc3ccc(-c4nc(C(F)(F)F)cn4C)cc3)c2n1 [Compound I-423, 2-(2-(2-methoxyethoxy)pyridin-3-yl)-9-(4-(1-methyl-4-(trifluoromethyl)-1H-imidazol-2-yl)benzyl)-7,9-dihydro-8H-purin-8-one]
The IC50 of the first is lower: < 50 nM for the first, 50 to 200 nM for the second.

`Cn1cc(C(F)(F)F)nc1-c1ccc(Cn2c(=O)[nH]c3cnc(-c4cccnc4OCC4CC4)nc32)cc1` [Compound I-414, 2-(2-(cyclopropylmethoxy)pyridin-3-yl)-9-(4-(1-methyl-4-(trifluoromethyl)-1H-imidazol-2-yl)benzyl)-7,9-dihydro-8H-purin-8-one] and `Cn1cc(C(F)(F)F)nc1-c1ccc(Cn2c(=O)[nH]c3cnc(-c4cccnc4OC4CC4)nc32)cc1` [Compound I-420, 2-(2-cyclopropoxypyridin-3-yl)-9-(4-(1-methyl-4-(trifluoromethyl)-1H-imidazol-2-yl)benzyl)-7,9-dihydro-8H-purin-8-one] cannot be ordered by IC50: < 50 nM for the first, < 50 nM for the second.

`CCOCCOc1ncccc1-c1ncc2[nH]c(=O)n(Cc3ccc(-c4nc(C(F)(F)F)cn4C)cc3)c2n1` [Compound I-415, 2-(2-(2-ethoxyethoxy)pyridin-3-yl)-9-(4-(1-methyl-4-(trifluoromethyl)-1H-imidazol-2-yl)benzyl)-7,9-dihydro-8H-purin-8-one] and `CC(C)COc1ncccc1-c1ncc2[nH]c(=O)n(Cc3ccc(-c4nc(C(F)(F)F)cn4C)cc3)c2n1` [Compound I-422, 2-(2-isobutoxypyridin-3-yl)-9-(4-(1-methyl-4-(trifluoromethyl)-1H-imidazol-2-yl)benzyl)-7,9-dihydro-8H-purin-8-one] cannot be ordered by IC50: < 50 nM for the first, < 50 nM for the second.

`CC(C)Oc1ncccc1-c1ncc2[nH]c(=O)n(Cc3ccc(-c4nc(C(F)(F)F)cn4C)cc3)c2n1` [Compound I-416, 2-(2-isopropoxypyridin-3-yl)-9-(4-(1-methyl-4-(trifluoromethyl)-1H-imidazol-2-yl)benzyl)-7,9-dihydro-8H-purin-8-one] and `CCC(C)Oc1ncccc1-c1ncc2[nH]c(=O)n(Cc3ccc(-c4nc(C(F)(F)F)cn4C)cc3)c2n1` (centres unmarked) [Compound I-417, 2-(2-(sec-butoxy)pyridin-3-yl)-9-(4-(1-methyl-4-(trifluoromethyl)-1H-imidazol-2-yl)benzyl)-7,9-dihydro-8H-purin-8-one] cannot be ordered by IC50: < 50 nM for the first, < 50 nM for the second.

`CC(Oc1ncccc1-c1ncc2[nH]c(=O)n(Cc3ccc(-c4nc(C(F)(F)F)cn4C)cc3)c2n1)C(F)(F)F` (centres unmarked) [Compound I-418, 9-(4-(1-methyl-4-(trifluoromethyl)-1H-imidazol-2-yl)benzyl)-2-(2-((1,1,1-trifluoropropan-2-yl)oxy)pyridin-3-yl)-7,9-dihydro-8H-purin-8-one] and `Cn1cc(C(F)(F)F)nc1-c1ccc(Cn2c(=O)[nH]c3cnc(-c4cccnc4OC4CCC4)nc32)cc1` [Compound I-419, 2-(2-cyclobutoxypyridin-3-yl)-9-(4-(1-methyl-4-(trifluoromethyl)-1H-imidazol-2-yl)benzyl)-7,9-dihydro-8H-purin-8-one] cannot be ordered by IC50: < 50 nM for the first, < 50 nM for the second.
